According to patent US10934310B2, “Inhibitors of Bruton's tyrosine kinase and method of their use” (JANSSEN PHARMACEUTICA NV, priority 2015, dated 2021):

molecular target: unphosphorylated-BTK kinase domain (UP-BTK), GST-tagged human BTK (389-659aa) (Homo sapiens (Human), UniProt Q06187); test: BTK Kinase Lanthascreen Binding Assay; details: Lanthascreen binding, 60 minutes incubation; pIC50 = negative log of the IC50 in molar
Method: BTK Kinase Lanthascreen Binding Assay:
A BTK kinase lanthascreen binding assay monitors compound binding to unphosphorylated-BTK kinase domain (UP-BTK), by competing with a fluorescent labeled tracer. […] Data were analyzed using Xlfit™ version 5.3 from ID Business Solutions (Guildford), Microsoft Excel add-in. pIC50 refers to the negative log of the IC50 in molar.

Chain of unphosphorylated-BTK kinase domain (UP-BTK), GST-tagged human BTK (389-659aa) (Q06187 389-659): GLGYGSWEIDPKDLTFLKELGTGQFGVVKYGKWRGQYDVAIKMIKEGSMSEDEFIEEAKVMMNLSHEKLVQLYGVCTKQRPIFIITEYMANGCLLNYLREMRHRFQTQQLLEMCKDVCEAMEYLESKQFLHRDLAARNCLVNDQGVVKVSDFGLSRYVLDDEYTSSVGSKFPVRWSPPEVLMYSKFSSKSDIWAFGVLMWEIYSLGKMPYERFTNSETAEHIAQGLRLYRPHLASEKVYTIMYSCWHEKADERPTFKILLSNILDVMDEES

SMILES | BTK_I_binding pIC50
C=CC(=O)N[C@H]1CCC[C@H]1NC(=O)c1sc2nccc3c2c1NC(=O)N3c1ccc(Oc2cncnc2)cc1C [Example 482, N-((1R,2S)-2-Acrylamidocyclopentyl)-5-(2-methyl-4-(pyrimidin-5-yloxy)phenyl)-4-oxo-4,5-dihydro-3H-1-thia-3,5,8-triazaacenaphthylene-2-carboxamide] | 7.79
C=CC(=O)N[C@H]1CCC[C@H]1NC(=O)c1sc2nccc3c2c1NC(=O)N3c1cnc(Oc2cccc(C)n2)cc1C [Example 483, N-((1R,2S)-2-Acrylamidocyclopentyl)-5-(4-methyl-6-((6-methylpyridin-2-yl)oxy)pyridin-3-yl)-4-oxo-4,5-dihydro-3H-1-thia-3,5,8-triazaacenaphthylene-2-carboxamide] | 7.49
C=CC(=O)N[C@H]1CCC[C@H]1NC(=O)c1sc2nccc3c2c1NC(=O)N3c1cnc(Oc2cncnc2)cc1C [Example 486, N-((1R,2S)-2-Acrylamidocyclopentyl)-5-(4-methyl-6-(pyrimidin-5-yloxy)pyridin-3-yl)-4-oxo-4,5-dihydro-3H-1-thia-3,5,8-triazaacenaphthylene-2-carboxamide] | 7.39
C=CC(=O)N[C@H]1CCC[C@H]1NC(=O)c1sc2nccc3c2c1NC(=O)N3c1cnc(Oc2ccccn2)cc1C [Example 488, N-((1R,2S)-2-Acrylamidocyclopentyl)-5-(4-methyl-6-(pyridin-2-yloxy)pyridin-3-yl)-4-oxo-4,5-dihydro-3H-1-thia-3,5,8-triazaacenaphthylene-2-carboxamide] | 7.62
C=CC(=O)N[C@H]1CCC[C@H]1NC(=O)c1sc2nccc3c2c1NC(=O)N3c1cnc(Oc2cccnc2C)cc1C [Example 489, N-((1R,2S)-2-Acrylamidocyclopentyl)-5-(4-methyl-6-((2-methylpyridin-3-yl)oxy)pyridin-3-yl)-4-oxo-4,5-dihydro-3H-1-thia-3,5,8-triazaacenaphthylene-2-carboxamide] | 7.03
C=CC(=O)N[C@H]1CCC[C@H]1NC(=O)c1sc2nccc3c2c1NC(=O)N3c1ccc(Oc2cncnc2)nc1C [Example 492, N-((1R,2S)-2-Acrylamidocyclopentyl)-5-(2-methyl-6-(pyrimidin-5-yloxy)pyridin-3-yl)-4-oxo-4,5-dihydro-3H-1-thia-3,5,8-triazaacenaphthylene-2-carboxamide] | 6.66
C=CC(=O)N[C@H]1CCC[C@H]1NC(=O)c1sc2nccc3c2c1NC(=O)N3c1ccc(Oc2ccc(C)nc2)nc1C [Example 495, N-((1R,2S)-2-Acrylamidocyclopentyl)-5-(2-methyl-6-((6-methylpyridin-3-yl)oxy)pyridin-3-yl)-4-oxo-4,5-dihydro-3H-1-thia-3,5,8-triazaacenaphthylene-2-carboxamide] | 6.63
C=CC(=O)N[C@H]1CCC[C@H]1NC(=O)c1sc2nccc3c2c1NC(=O)N3c1ccc(Oc2cncnc2)cc1 [Example 508, N-((1R,2S)-2-acrylamidocyclopentyl)-4-oxo-5-(4-(pyrimidin-5-yloxy)phenyl)-4,5-dihydro-3H-1-thia-3,5,8-triazaacenaphthylene-2-carboxamide] | 7.48

The next lines start with the values.

BTK_I_binding pIC50 | SMILES
7.59 | C=CC(=O)N[C@H]1CCC[C@H]1NC(=O)c1sc2nccc3c2c1NC(=O)N3c1ccc(Oc2ccccn2)cn1 [Example 480, N-((1R,2S)-2-Acrylamidocyclopentyl)-4-oxo-5-(5-(pyridin-2-yloxy)pyridin-2-yl)-4,5-dihydro-3H-1-thia-3,5,8-triazaacenaphthylene-2-carboxamide]
7.33 | C=CC(=O)N[C@H]1CCC[C@H]1NC(=O)c1sc2nccc3c2c1NC(=O)N3c1ccc(Oc2ccc(C)nc2)cn1 [Example 481, N-((1R,2S)-2-Acrylamidocyclopentyl)-5-(5-((6-methylpyridin-3-yl)oxy)pyridin-2-yl)-4-oxo-4,5-dihydro-3H-1-thia-3,5,8-triazaacenaphthylene-2-carboxamide]
6.93 | C=CC(=O)N[C@H]1CCC[C@H]1NC(=O)c1sc2nccc3c2c1NC(=O)N3c1ccc(Oc2ncccn2)cn1 [Example 484, N-((1R,2S)-2-Acrylamidocyclopentyl)-4-oxo-5-(5-(pyrimidin-2-yloxy)pyridin-2-yl)-4,5-dihydro-3H-1-thia-3,5,8-triazaacenaphthylene-2-carboxamide]
6.59 | C=CC(=O)N[C@H]1CCC[C@H]1NC(=O)c1sc2nccc3c2c1NC(=O)N3c1ccc(Oc2cncnc2)cn1 [Example 485, N-((1R,2S)-2-Acrylamidocyclopentyl)-4-oxo-5-(5-(pyrimidin-5-yloxy)pyridin-2-yl)-4,5-dihydro-3H-1-thia-3,5,8-triazaacenaphthylene-2-carboxamide]
6.87 | C=CC(=O)N[C@H]1CCC[C@H]1NC(=O)c1sc2nccc3c2c1NC(=O)N3c1cnc(Oc2ccc(C)nc2)cc1C [Example 487, N-((1R,2S)-2-Acrylamidocyclopentyl)-5-(4-methyl-6-((6-methylpyridin-3-yl)oxy)pyridin-3-yl)-4-oxo-4,5-dihydro-3H-1-thia-3,5,8-triazaacenaphthylene-2-carboxamide]
7.40 | C=CC(=O)N[C@H]1CCC[C@H]1NC(=O)c1sc2nccc3c2c1NC(=O)N3c1cnc(Oc2cccnc2)cc1C [Example 490, N-((1R,2S)-2-Acrylamidocyclopentyl)-5-(4-methyl-6-(pyridin-3-yloxy)pyridin-3-yl)-4-oxo-4,5-dihydro-3H-1-thia-3,5,8-triazaacenaphthylene-2-carboxamide]
7.43 | C=CC(=O)N[C@H]1CCC[C@H]1NC(=O)c1sc2nccc3c2c1NC(=O)N3c1ccc(Oc2cccnc2)cn1 [Example 491, N-((1R,2S)-2-Acrylamidocyclopentyl)-4-oxo-5-(5-(pyridin-3-yloxy)pyridin-2-yl)-4,5-dihydro-3H-1-thia-3,5,8-triazaacenaphthylene-2-carboxamide]
7.32 | C=CC(=O)N[C@H]1CCC[C@H]1NC(=O)c1sc2nccc3c2c1NC(=O)N3c1ccc(Oc2cccnc2C)cn1 [Example 493, N-((1R,2S)-2-Acrylamidocyclopentyl)-5-(5-((2-methylpyridin-3-yl)oxy)pyridin-2-yl)-4-oxo-4,5-dihydro-3H-1-thia-3,5,8-triazaacenaphthylene-2-carboxamide]
7.37 | C=CC(=O)N[C@H]1CCC[C@H]1NC(=O)c1sc2nccc3c2c1NC(=O)N3c1ccc(Oc2cccnc2)nc1C [Example 494, N-((1R,2S)-2-Acrylamidocyclopentyl)-5-(2-methyl-6-(pyridin-3-yloxy)pyridin-3-yl)-4-oxo-4,5-dihydro-3H-1-thia-3,5,8-triazaacenaphthylene-2-carboxamide]

same assay, conditions: read-out: BTK_I_binding pIC50 (converted)

IC50 | SMILES
0.0288 µM | C=CC(=O)N[C@H]1CCC[C@H]1NC(=O)c1sc2nccc3c2c1NC(=O)N3c1ccc(Oc2cccc(C)n2)cn1 [Example 479, N-((1R,2S)-2-Acrylamidocyclopentyl)-5-(5-((6-methylpyridin-2-yl)oxy)pyridin-2-yl)-4-oxo-4,5-dihydro-3H-1-thia-3,5,8-triazaacenaphthylene-2-carboxamide]
